{"source": "PubChem BioAssay (NCI)", "note": "Several values for one entry are separate records, joined by “and”; a condition that tells them apart may be missing. Equal values may be shown once.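 Briefly, cells in 96-well plates were exposed to five compound concentrations for 48 h, and endpoints were estimated by linear interpolation. GI50: concentration for 50% inhibition of growth. At the TGI there is no net growth.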", "data": [{"test_system": "EKVX NSCLC", "test": "DTP human tumour cell line panel, 48 h", "units": {"TGI": "µM", "GI50": "µM"}, "values": [{"compound": "NC(CCC(=O)NC(CSSCCCCS(=O)O)C(=O)NCC(=O)O)C(=O)O", "note": "(configuration not stated)", "TGI": "> 100"}, {"compound": "C[C@@H]1OC(O)[C@@H](F)[C@H](O)[C@@H]1O", "note": "(some centres not stated)", "GI50": "> 100", "TGI": "> 100"}, {"compound": "COC12C=C(C)C(CC1)CC2C(=O)O", "note": "(configuration not stated)", "TGI": "> 100"}, {"compound": "OCC(O)CC[CH2][Sn]([Br])([c]1ccccc1)[c]1ccccc1", "note": "(configuration not stated)", "GI50": "> 100", "TGI": "> 100"}, {"compound": "NC(=O)c1ccc(I)c(N)c1", "GI50": "> 100", "TGI": "> 100"}, {"compound": "CCc1ccc(/C=C\\c2cc(OC)c(OC)c(OC)c2)cc1", "GI50": 0.0521, "TGI": "> 100"}, {"compound": "O=c1c2cc([N+](=O)[O-])ccc2sc2ccsc12", "TGI": "> 100"}, {"compound": "COc1ccc(C2=CC3CCC2C3)cc1", "note": "(configuration not stated)", "TGI": "> 100"}, {"compound": "COc1ccc(/C=C/CN(C)CCc2ccccc2)cc1OC", "TGI": "> 100"}, {"compound": "O=C1CCCCN1CCCCC#Cc1ccccc1C#Cc1ccc([N+](=O)[O-])cc1", "GI50": 5.26, "TGI": 40}, {"compound": "[Cl-].[Dy+3].[O-]/N=C(\\c1ccccc1)c1ccccn1.[O-]/N=C(\\c1ccccc1)c1ccccn1.[O-]/N=C(\\c1ccccc1)c1ccccn1", "GI50": 31.2, "TGI": "> 100"}, {"compound": "NC(=O)C(=O)N/N=C(\\CC1(O)C(=O)Nc2ccccc21)c1ccc2ccccc2c1", "note": "(configuration not stated)", "TGI": "> 100"}, {"compound": "Cc1cc2c(cc1C)[n+](=O)c(C(=O)C/C(=N/NC(=O)CC#N)C(=O)Nc1ccccc1C(F)(F)F)c(C)n2[O-]", "TGI": "> 100"}, {"compound": "COC(=O)/C(=N/NC(=O)C[N+](C)(C)C)C(C(=O)OC)C(=O)C(=O)Nc1ccc(F)cc1", "note": "(configuration not stated)", "TGI": "> 100"}, {"compound": "O=C(c1ccccc1)c1nnc(C(=O)c2ccccc2)nn1", "TGI": "> 344"}, {"compound": "Brc1cccc(C=NC23CC4CC(CC(C4)C2)C3)c1", "TGI": "> 100"}, {"compound": "Nc1nc(Cl)c2ncn(Cc3ccc(C45CC6CC(CC(C6)C4)C5)c(O)c3)c2n1", "GI50": 2.99, "TGI": 21.8}, {"compound": "CCC[CH2][Sn]([CH2]CCC)([O]C(=O)c1cccnc1SC)[O]C(=O)c1cccnc1SC", "GI50": 1.04, "TGI": 2.22}, {"compound": "CC[C@@]1(O)C(=O)OCc2c1cc1n(c2=O)Cc2c-1nc1cc3c(cc1c2CCl)OCO3", "GI50": 0.994, "TGI": "> 44.6"}, {"compound": "O=C1O[C@@H](c2ccc3c(c2)OCO3)C2C(=O)O[C@@H](c3ccc4c(c3)OCO4)C12", "note": "(some centres not stated)", "TGI": "> 100"}, {"compound": "O=C1CCC(=O)N2CCCCN12", "TGI": "> 100"}, {"compound": "CC(C)C(=O)NC(=S)Nc1ccc([N+](=O)[O-])cc1C#N", "TGI": "> 100"}, {"compound": "C/C(CC(=O)Nc1cc(Cl)c(Cl)cc1Cl)=N\\NC(N)=O", "TGI": "> 100"}, {"compound": "N#Cc1cc([N+](=O)[O-])ccc1NC(=O)C(=O)Nc1n[nH]c(N)n1", "TGI": "> 100"}, {"compound": "O=C(/C=C/c1c(O)ccc2ccccc12)c1cccc(O)c1", "TGI": "> 100"}, {"compound": "CC1=NN(C(=O)Nc2ccccc2)C(=O)C2CCC(=O)N12", "note": "(configuration not stated)", "TGI": "> 100"}, {"compound": "Oc1ccc(NCc2nc3ccccc3[nH]2)cc1", "GI50": 46.2, "TGI": "> 100"}, {"compound": "COC(=O)C1Cc2c(n(Cc3ccccc3)c3ccccc23)C(CCC(=O)O)N1C(C)C", "note": "(configuration not stated)", "TGI": "> 100"}, {"compound": "O=C(O)CNS(=O)(=O)c1ccc(NCc2ccccc2)cc1", "TGI": "> 100"}, {"compound": "O=C1c2cc(Cl)ccc2S(=O)(=O)c2c(NCCCNCCO)nc3ccccc3c21", "GI50": 1.66, "TGI": 4.83}, {"compound": "CC(C)(C)C1C=C(Sc2ccccc2)C(=O)O1", "note": "(configuration not stated)", "TGI": "> 100"}, {"compound": "CCC[CH2][Sn]1([CH2]CCC)[O]Cc2nc(C)ccc2[O]1", "GI50": 4.36, "TGI": 18.2}, {"compound": "O=c1/c(=C/c2ccco2)sc2nc3ccccc3n12", "GI50": "> 10", "TGI": "> 100"}, {"compound": "O=C1CCC2(c3ccc(F)cc3)Nc3cc(Cl)ccc3N12", "note": "(configuration not stated)", "TGI": "> 100"}, {"compound": "O=c1[nH]ncc(Br)c1Br", "GI50": 2.87, "TGI": 13.1}, {"compound": "C/C(CC(=O)Nc1ccc(C)cc1C)=N/N=C(N)N", "TGI": "> 100"}, {"compound": "COc1ccc(-c2cc(=O)c3c(OC)c(OC)c(OC)cc3o2)cc1", "TGI": "> 100"}]}, {"test_system": "NCI-H522 lung", "test": "DTP human tumour cell line panel, 48 h", "units": {"GI50": "µM"}, "values": [{"compound": "COC(=O)c1c/c(=N\\NC(=O)CC(=O)Nc2ccccc2OC)c2ccccc2o1", "TGI": "> 100 µM"}, {"compound": "NC(CCC(=O)NC(CSSCCCCS(=O)O)C(=O)NCC(=O)O)C(=O)O", "note": "(configuration not stated)", "TGI": "> 100 µM"}, {"compound": "C[C@@H]1OC(O)[C@@H](F)[C@H](O)[C@@H]1O", "note": "(some centres not stated)", "GI50": "> 100", "TGI": "> 100 µM"}, {"compound": "COC12C=C(C)C(CC1)CC2C(=O)O", "note": "(configuration not stated)", "TGI": "> 100 µM"}, {"compound": "OCC(O)CC[CH2][Sn]([Br])([c]1ccccc1)[c]1ccccc1", "note": "(configuration not stated)", "GI50": 13, "TGI": "92.1 µM"}, {"compound": "NC(=O)c1ccc(I)c(N)c1", "GI50": "> 100", "TGI": "> 100 µM"}, {"compound": "CCc1ccc(/C=C\\c2cc(OC)c(OC)c(OC)c2)cc1", "TGI": "0.0503 µM and 0.0384 µM"}, {"compound": "O=c1c2cc([N+](=O)[O-])ccc2sc2ccsc12", "TGI": "> 100 µM"}, {"compound": "COc1ccc(C2=CC3CCC2C3)cc1", "note": "(configuration not stated)", "TGI": "> 100 µM"}, {"compound": "O=C1CCCCN1CCCCC#Cc1ccccc1C#Cc1ccc([N+](=O)[O-])cc1", "GI50": 12.3, "TGI": "59.5 µM"}, {"compound": "[Cl-].[Dy+3].[O-]/N=C(\\c1ccccc1)c1ccccn1.[O-]/N=C(\\c1ccccc1)c1ccccn1.[O-]/N=C(\\c1ccccc1)c1ccccn1", "GI50": 19.5, "TGI": "65.6 µM"}, {"compound": "NC(=O)C(=O)N/N=C(\\CC1(O)C(=O)Nc2ccccc21)c1ccc2ccccc2c1", "note": "(configuration not stated)", "TGI": "41.6 µM"}, {"compound": "Cc1cc2c(cc1C)[n+](=O)c(C(=O)C/C(=N/NC(=O)CC#N)C(=O)Nc1ccccc1C(F)(F)F)c(C)n2[O-]", "TGI": "35.5 µM"}, {"compound": "COC(=O)/C(=N/NC(=O)C[N+](C)(C)C)C(C(=O)OC)C(=O)C(=O)Nc1ccc(F)cc1", "note": "(configuration not stated)", "TGI": "> 100 µM"}, {"compound": "O=C(c1ccccc1)c1nnc(C(=O)c2ccccc2)nn1", "TGI": "> 344 µM"}, {"compound": "Brc1cccc(C=NC23CC4CC(CC(C4)C2)C3)c1", "TGI": "> 100 µM"}, {"compound": "Nc1nc(Cl)c2ncn(Cc3ccc(C45CC6CC(CC(C6)C4)C5)c(O)c3)c2n1", "GI50": 6.01, "TGI": "23.8 µM"}, {"compound": "CCC[CH2][Sn]([CH2]CCC)([O]C(=O)c1cccnc1SC)[O]C(=O)c1cccnc1SC", "GI50": 0.0216, "TGI": "0.133 µM"}, {"compound": "CC[C@@]1(O)C(=O)OCc2c1cc1n(c2=O)Cc2c-1nc1cc3c(cc1c2CCl)OCO3", "GI50": "< 0.01", "TGI": "1.36 µM"}, {"compound": "O=C1O[C@@H](c2ccc3c(c2)OCO3)C2C(=O)O[C@@H](c3ccc4c(c3)OCO4)C12", "note": "(some centres not stated)", "TGI": "> 100 µM"}, {"compound": "O=C1CCC(=O)N2CCCCN12", "TGI": "> 100 µM"}, {"compound": "CC(C)C(=O)NC(=S)Nc1ccc([N+](=O)[O-])cc1C#N", "TGI": "> 100 µM"}, {"compound": "C/C(CC(=O)Nc1cc(Cl)c(Cl)cc1Cl)=N\\NC(N)=O", "TGI": "> 100 µM"}, {"compound": "N#Cc1cc([N+](=O)[O-])ccc1NC(=O)C(=O)Nc1n[nH]c(N)n1", "TGI": "> 100 µM"}, {"compound": "O=C(/C=C/c1c(O)ccc2ccccc12)c1cccc(O)c1", "TGI": "> 100 µM"}, {"compound": "Oc1ccc(NCc2nc3ccccc3[nH]2)cc1", "GI50": 27.7, "TGI": "> 100 µM"}, {"compound": "COC(=O)C1Cc2c(n(Cc3ccccc3)c3ccccc23)C(CCC(=O)O)N1C(C)C", "note": "(configuration not stated)", "TGI": "> 100 µM"}, {"compound": "O=C(O)CNS(=O)(=O)c1ccc(NCc2ccccc2)cc1", "TGI": "> 100 µM"}, {"compound": "O=C1c2cc(Cl)ccc2S(=O)(=O)c2c(NCCCNCCO)nc3ccccc3c21", "GI50": 0.323, "TGI": "1.42 µM"}, {"compound": "CC(C)(C)C1C=C(Sc2ccccc2)C(=O)O1", "note": "(configuration not stated)", "TGI": "87.8 µM"}, {"compound": "CCC[CH2][Sn]1([CH2]CCC)[O]Cc2nc(C)ccc2[O]1", "GI50": 1.19, "TGI": "2.5 µM"}, {"compound": "O=c1/c(=C/c2ccco2)sc2nc3ccccc3n12", "GI50": "> 100", "TGI": "> 100 µM"}, {"compound": "O=C1CCC2(c3ccc(F)cc3)Nc3cc(Cl)ccc3N12", "note": "(configuration not stated)", "TGI": "> 100 µM"}, {"compound": "O=c1[nH]ncc(Br)c1Br", "GI50": 1.71, "TGI": "3.25 µM"}, {"compound": "C/C(CC(=O)Nc1ccc(C)cc1C)=N/N=C(N)N", "TGI": "> 100 µM"}, {"compound": "COc1ccc(-c2cc(=O)c3c(OC)c(OC)c(OC)cc3o2)cc1", "TGI": "85.3 µM"}]}, {"test_system": "SN12C renal", "test": "DTP human tumour cell line panel, 48 h", "units": {"TGI": "µM", "GI50": "µM"}, "values": [{"compound": "COC(=O)c1c/c(=N\\NC(=O)CC(=O)Nc2ccccc2OC)c2ccccc2o1", "TGI": "> 100"}, {"compound": "NC(CCC(=O)NC(CSSCCCCS(=O)O)C(=O)NCC(=O)O)C(=O)O", "note": "(configuration not stated)", "TGI": "> 100"}, {"compound": "C[C@@H]1OC(O)[C@@H](F)[C@H](O)[C@@H]1O", "note": "(some centres not stated)", "GI50": "> 100", "TGI": "> 100"}, {"compound": "COC12C=C(C)C(CC1)CC2C(=O)O", "note": "(configuration not stated)", "TGI": "> 100"}, {"compound": "OCC(O)CC[CH2][Sn]([Br])([c]1ccccc1)[c]1ccccc1", "note": "(configuration not stated)", "GI50": "> 100", "TGI": "> 100"}, {"compound": "NC(=O)c1ccc(I)c(N)c1", "GI50": "> 100", "TGI": "> 100"}, {"compound": "CCc1ccc(/C=C\\c2cc(OC)c(OC)c(OC)c2)cc1", "GI50": 0.0539}, {"compound": "O=c1c2cc([N+](=O)[O-])ccc2sc2ccsc12", "TGI": "> 100"}, {"compound": "COc1ccc(C2=CC3CCC2C3)cc1", "note": "(configuration not stated)", "TGI": "> 100"}]}]}
